# Assay results published in patent publication EP4748844A1, “AZETIDINE COMPOUND AND MEDICAL USE THEREOF” (SHANGHAI INSTITUTE OF MATERIA MEDICA, CHINESE ACADEMY OF …, priority 2023, dated 2025).
# What was measured:
# [1] = test system: DMXAA induced ISG gene expression in mouse RAW-Lucia cells; assay: Inhibition of DMXAA-induced ISG gene expression in mouse RAW-Lucia cells (QUANTI-Luc); assay type: cell-based; details: STING agonist DMXAA 50 µM, incubated for 24 hours
# Outline: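 RAW-Lucia cells (4×10^5/mL) stimulated with 50 µM DMXAA and co-incubated 24 h with compound at 10 to 0.004 µM (3-fold steps, 0.1% DMSO). Secreted luciferase in supernatant read with QUANTI-Luc; inhibition calculated against DMXAA-only control, IC50 from four-parameter variable-slope fit constrained 0–100.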
# [2] = test system: STING agonist (MSA-2) stimulation; assay: In vivo anti-inflammatory effect of oral administration on STING agonist (MSA-2) stimulation; set-up: species or system C57BL6 female mice; details: I-77 20mpk
# Procedure: 6-8 week C57BL6 female mice, purchased from Shanghai Jihui Experimental Animal Breeding Co., Ltd. Compound preparation method: 2 mg of I-77 powder was taken, 12 µL of PEG400 was added thereto and ultrasonically dissolved, and then 8 µL of Tween 80 was added and ultrasonically mixed to prepare a 100 mg/mL stock solution.
# Experimental grouping: The control group was administered vehicle solvent; The model group was administered MSA-2 (10mpk, dissolved in 40% PEG400); The treatment group (I-77) was administered MSA-2 and I-77 (20mpk, PO). A final concentration of […] of I-77 solution was prepared by dilution with double distilled water, and 200 µL of the solution was taken and administered intragastrically into the mice in treatment group; The control group and MSA-2 group were administered intragastrically with 200 µL of vehicle solvent diluted 10 times. […] After high-speed centrifugation of blood samples, the plasma was taken and diluted by 2 times, and the levels of CXCL10 and IL6 in the plasma were detected using the Lianke ELISA kit. RNA was extracted from heart and kidney samples, and reversed to cDNA, and inflammation related cytokines (ISG15, ISG56, IL6, and IP10) in tissues were detected using qPCR technology. […]
# [3] = test system: STING-V154M mutant autoimmune mouse disease model; assay: Inflammatory inhibitory effect of oral administration in STING-V154M mutant autoimmune mouse disease model; assay type: in vivo; details: I-77 20mpk
# Procedure: The model mice were purchased from GEMPHARMATECH CO., LTD., and the wild-type C57/BL6 mice were also purchased from GEMPHARMATECH CO., LTD... Compound preparation method: 2 mg of I-77 powder was taken, 12 µL of PEG400 was added thereto and ultrasonically dissolved, and then 8 µL of Tween 80 was added and ultrasonically mixed to prepare a 100 mg/mL stock solution.
# Experimental grouping: Wild type mice control group (Control) was administered vehicle solvent; The model mice group (Model) was administered solvent; The treatment group (I-77) was administered I-77 (20mpk, PO) to the model mice. The mice in the I-77 treatment group were intragastrically administered 200 µL of I-77 solution at a final concentration of […] which was prepared by dilution with double-distilled water; The same dose of solvent was administered to the remaining groups until the mortality rate of the model group exceeded 50%. The kidneys and heart were collected from the experimental endpoint samples. RNA extraction was performed on heart and kidneys samples, and the RNA was reversed to cDNA. Changes in gene expression of inflammation related cytokines (ISG15, CCL5, IP10, ISG56) in the tissues were detected using qPCR technology. Statistical method: One way ANOVA, *P<0.05, **P<0.01, ***P<0.001, ***P<0.0001.
smiles,measurement,setting,value
"CC1(C)C(=O)N(Cc2ccsc2)c2cc(C(=O)Nc3c[nH]c4ccccc34)ccc21 [Example I-77, N-(1H-indol-3-yl)-3,3-dimethyl-2-oxo-1-(thien-3-ylmethyl)indolin-6-carboxamide]",IC50,[1],2.28 nM
same,levels of IL6 and IP10 in plasma induced by MSA-2 injection,"[2]; 1 hour before MSA-2 (10mpk), plasma ELISA after 4 hours, Figure 4",significantly reduced
same,inflammatory response of the heart and kidneys induced by MSA-2 stimulation,"[2]; qPCR of ISG15, ISG56, IL6, IP10 in tissues, Figures 5, 6",inhibited the inflammatory response
same,cardiac and renal inflammatory responses of STING V154M mutant model mice,"[3]; qPCR of ISG15, CCL5, IP10, ISG56 in heart and kidneys, Figures 8, 9",inhibit the cardiac and renal inflammatory responses
same,survival of STING V154M mutant model mice,"[3]; until mortality of the model group exceeded 50%, Figure 7",significantly prolong the survival
